# Biological target: T1, GSNOR (GSNO Reductase) (Homo sapiens, UniProt P11766)
# T1 construct: made in house; host or cells: E. coli (arabinose induction)
# Assay: GSNOR assay (in vitro inhibition of GSNOR activity, NADH absorbance at 340 nm)
# Assay type: biochemical
# Details: 0.240 mM GSNO, 0.300 mM NADH, 0.5 μg/mL GSNO Reductase, pH 7.4, 25° C.
# Description: Various compounds were tested in vitro for their ability to inhibit GSNOR activity. Representative compounds and their corresponding GSNOR activity are described in a paragraph before Table 1 above. GSNOR expression and purification is described in Biochemistry 2000, 39, 10720-10729.
# GSNOR fermentation: Pre-cultures were grown from stabs of a GSNOR glycerol stock in 2XYT media containing 100 ug/ml ampicillin after an overnight incubation at 37° C. Cells were then added to fresh 2XYT (4 L) containing ampicillin and grown to an OD (A600) of 0.6-0.9 at 37° C. before induction. GSNOR expression was induced with 0.1% arabinose in an overnight incubation at 20° C.
# GSNOR Purification: E. coli cell paste was lysed by nitrogen cavitation and the clarified lysate purified by Ni affinity chromatography on an AKTA FPLC (Amersham Pharmacia). The column was eluted in 20 mM Tris pH 8.0/250 mM NaCl with a 0-500 mM imidazole gradient. […] GSNOR was recovered in the flowthrough fraction and for crystallography is further purified by Q-Sepharose and Heparin flowthrough chromatography in 20 mM Tris pH 8.0, 1 mM DTT, 10 uM ZnSO4.
# GSNOR assay: GSNO and Enzyme/NADH Solutions are made up fresh each day. The Solutions are filtered and allowed to warm to room temperature. GSNO Solution: 100 mM NaPO4 (pH 7.4), 0.480 mM GSNO. 396 μL of GSNO Solution is added to a cuvette followed by 8 μL of test compound in DMSO (or DMSO only for full reaction control) and mixed with the pipette tip. Compounds to be tested are made up at a stock concentration of 10 mM in 100% DMSO. 2 fold serial dilutions are done in 100% DMSO. 8 μL of each dilution are added to an assay so that the final concentration of DMSO in the assay is 1%. The concentrations of compounds tested range from 100 to 0.003 μM. Enzyme/NADH Solution: 100 mM NaPO4 (pH 7.4), 0.600 mM NADH, 1.0 μg/mL GSNO Reductase. 396 μL of the Enzyme/NADH Solution is added to the cuvette to start the reaction. The cuvette is placed in the Cary 3E UV/Visible Spectrophotometer and the change in 340 nm absorbance/min at 25° C. is recorded for 3 minutes. The assays are done in triplicate for each compound concentration. IC50's for each compound are calculated using the standard curve analysis in the Enzyme Kinetics Module of SigmaPlot.
# Final assay conditions: 100 mM NaPO4, pH 7.4, 0.240 mM GSNO, 0.300 mM NADH, 0.5 μg/mL GSNO Reductase and 1% DMSO. Final volume: 800 μL/cuvette.
# T1 sequence (P11766 whole entry): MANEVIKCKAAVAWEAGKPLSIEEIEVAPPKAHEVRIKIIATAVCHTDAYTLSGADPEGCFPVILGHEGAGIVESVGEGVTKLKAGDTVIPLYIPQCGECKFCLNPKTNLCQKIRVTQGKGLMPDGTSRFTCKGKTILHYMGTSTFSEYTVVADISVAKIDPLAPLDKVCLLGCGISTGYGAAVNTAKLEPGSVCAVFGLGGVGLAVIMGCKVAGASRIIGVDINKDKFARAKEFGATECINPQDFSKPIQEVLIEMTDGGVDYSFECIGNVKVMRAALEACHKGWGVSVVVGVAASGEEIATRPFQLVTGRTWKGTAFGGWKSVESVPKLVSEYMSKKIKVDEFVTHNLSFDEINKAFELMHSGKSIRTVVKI
compound,measurement,value
"CCc1nccn1-c1ccc(-c2ccc(CCC(=O)O)n2-c2ccc(C(N)=O)cc2C)cc1 [Compound 69, 3-(1-(4-carbamoyl-2-methylphenyl)-5-(4-(2-ethyl-1H-imidazol-1-yl)phenyl)-1H-pyrrol-2-yl)propanoic acid]",IC50,< 1 µM
"COc1ccc(-c2ccc(CCC(=O)O)n2-c2ccc(O)cc2Cl)cc1 [Compound 80, 3-(1-(2-chloro-4-hydroxyphenyl)-5-(4-methoxy-phenyl)-1H-pyrrol-2-yl)propanoic acid]",IC50,< 1 µM
"COc1ccc(-c2ccc(CCC(=O)O)n2-c2ccc(C(N)=O)cc2C)c(C)c1 [Compound 110, 3-(1-(4-carbamoyl-2-methylphenyl)-5-(4-methoxy-2-methylphenyl)-1H-pyrrol-2-yl)propanoic acid]",IC50,< 1 µM
"COc1ccc(-c2ccc(CCC(=O)O)n2-c2ccc(C(N)=O)cc2C)c(Cl)c1 [Compound 118, 3-(1-(4-carbamoyl-2-methylphenyl)-5-(2-chloro-4-methoxy-phenyl)-1H-pyrrol-2-yl)propanoic acid]",IC50,< 1 µM
"Cc1cc(C(N)=O)ccc1-n1c(CCC(=O)O)ccc1-c1cc(-n2ccnc2)cs1 [Compound 120, 3-(5-(4-(1H-imidazol-1-yl)thiophen-2-yl)-1-(4-carbamoyl-2-methylphenyl)-1H-pyrrol-2-yl)propanoic acid]",IC50,< 1 µM
"Cc1cc(C(N)=O)ccc1-n1c(CCC(=O)O)ccc1-c1cc(-n2ccnc2C)cs1 [Compound 144, 3-(1-(4-carbamoyl-2-methylphenyl)-5-(4-(2-methyl-1H-imidazol-1-yl)thiophen-2-yl)-1H-pyrrol-2-yl)propanoic acid]",IC50,< 1 µM
"COc1cc(-n2ccnc2C)ccc1-c1ccc(CCC(=O)O)n1-c1ccc(C(N)=O)cc1C [Compound 146, 3-(1-(4-carbamoyl-2-methylphenyl)-5-(2-methoxy-4-(2-methyl-1H-imidazol-1-yl)phenyl)-1H-pyrrol-2-yl)propanoic acid]",IC50,< 1 µM
"Cc1cc(C(N)=O)ccc1-n1c(CCC(=O)O)ccc1-c1ccc(Cl)cc1C(N)=O [Compound 152, 3-(1-(4-carbamoyl-2-methylphenyl)-5-(2-carbamoyl-4-chloro-phenyl)-1H-pyrrol-2-yl)propanoic acid]",IC50,< 1 µM
"Cc1cc(NS(C)(=O)=O)ccc1-n1c(CCC(=O)O)ccc1-c1cc(Br)cs1 [Compound 183, 3-(5-(4-bromothiophen-2-yl)-1-(2-methyl-4-(methyl-sulfonamido)-phenyl)-1H-pyrrol-2-yl)propanoic acid]",IC50,< 5 µM
Cc1cc(S(N)(=O)=O)ccc1-n1c(CCC(=O)O)ccc1-c1ccc(-n2ccnc2C)s1 [Compound 194],IC50,< 1 µM
"COc1ccc(-c2ccc(CCC(=O)O)n2-c2ccc3ncccc3c2)cc1 [Compound 216, 3-(5-(4-methoxyphenyl)-1-(quinolin-6-yl)-1H-pyrrol-2-yl)propanoic acid]",IC50,< 1 µM
"Cc1cc2nc[nH]c2cc1-n1c(CCC(=O)O)ccc1-c1ccc(-n2ccnc2)cc1 [Compound 219, 3-(5-(4-(1H-imidazol-1-yl)phenyl)-1-(5-methyl-1H-benzo[d]imidazol-6-yl)-1H-pyrrol-2-yl)propanoic acid]",IC50,< 1 µM
"COc1ccc(-c2ccc(CCC(=O)O)n2-c2ccc(C(N)=O)c(Cl)c2)cc1 [Compound 221, 3-(1-(4-carbamoyl-3-chlorophenyl)-5-(4-methoxyphenyl)-1H-pyrrol-2-yl)propanoic acid]",IC50,< 1 µM
"COc1ccc(-c2ccc(CCC(=O)O)n2-c2ccc3ccncc3c2)cc1 [Compound 223, 3-(1-(isoquinolin-7-yl)-5-(4-methoxyphenyl)-1H-pyrrol-2-yl)propanoic acid]",IC50,< 5 µM
"COc1ccc(-c2ccc(CCC(=O)O)n2-c2ccc(F)c(C#N)c2)cc1 [Compound 226, 3-(1-(3-cyano-4-fluorophenyl)-5-(4-methoxyphenyl)-1H-pyrrol-2-yl)propanoic acid]",IC50,< 5 µM
"COc1ccc(-c2ccc(CCC(=O)O)n2-c2ccc(O)c(F)c2)cc1 [Compound 229, 3-(1-(3-fluoro-4-hydroxyphenyl)-5-(4-methoxyphenyl)-1H-pyrrol-2-yl)propanoic acid]",IC50,< 5 µM
"COc1ccc(-c2ccc(CCC(=O)O)n2-c2ccc3c(N)noc3c2)cc1 [Compound 231, 3-(1-(3-aminobenzo[d]isoxazol-6-yl)-5-(4-methoxyphenyl)-1H-pyrrol-2-yl)propanoic acid]",IC50,< 1 µM
"O=C(O)CCc1ccc(-c2ccccc2)n1-c1ccc(O)c(C(=O)O)c1 [Compound 232, 5-(2-(2-carboxyethyl)-5-phenyl-1H-pyrrol-1-yl)-2-hydroxybenzoic acid]",IC50,< 5 µM
"Cc1nccn1-c1ccc(-c2ccc(CCC(=O)O)n2-c2ccc3oc(=O)[nH]c3c2)cc1 [Compound 235, 3-(5-(4-(2-methyl-1H-imidazol-1-yl)phenyl)-1-(2-oxo-2,3-dihydrobenzo[d]oxazol-5-yl)-1H-pyrrol-2-yl)propanoic acid]",IC50,< 1 µM
"Cc1nccn1-c1ccc(-c2ccc(CCC(=O)O)n2-c2ccc3[nH]c(=O)oc3c2)cc1 [Compound 236, 3-(5-(4-(2-methyl-1H-imidazol-1-yl)phenyl)-1-(2-oxo-2,3-dihydrobenzo[d]oxazol-6-yl)-1H-pyrrol-2-yl)propanoic acid]",IC50,< 5 µM
"COc1ccc(-c2ccc(CCC(=O)O)n2-c2ccc(C(N)=O)s2)cc1 [Compound 237, 3-(1-(5-carbamoylthiophen-2-yl)-5-(4-methoxyphenyl)-1H-pyrrol-2-yl)propanoic acid]",IC50,< 5 µM
"COc1ccc(-c2ccc(CCC(=O)O)n2-c2ncc(C(N)=O)s2)cc1 [Compound 238, 3-(1-(5-carbamoylthiazol-2-yl)-5-(4-methoxyphenyl)-1H-pyrrol-2-yl)propanoic acid]",IC50,< 5 µM
"Cc1nccn1-c1ccc(-c2ccc(CCC(=O)O)n2-c2ccc(O)cc2)cc1 [Compound 249, 3-(1-(4-hydroxyphenyl)-5-(4-(2-methyl-1H-imidazol-1-yl)phenyl)-1H-pyrrol-2-yl)propanoic acid]",IC50,< 1 µM
"Cc1nccn1-c1csc(-c2ccc(CCC(=O)O)n2-c2ccc(O)cc2)c1 [Compound 255, 3-(1-(4-hydroxyphenyl)-5-(4-(2-methyl-1H-imidazol-1-yl)thiophen-2-yl)-1H-pyrrol-2-yl)propanoic acid]",IC50,< 1 µM
"COc1cc(Cl)ccc1-c1ccc(CCC(=O)O)n1-c1ccc(O)cc1 [Compound 262, 3-(5-(4-chloro-2-methoxyphenyl)-1-(4-hydroxyphenyl)-1H-pyrrol-2-yl)propanoic acid]",IC50,< 1 µM
"COc1cc(Cl)ccc1-c1ccc(CCC(=O)O)n1-c1ccc(C(N)=O)cc1 [Compound 264, 3-(1-(4-carbamoylphenyl)-5-(4-chloro-2-methoxyphenyl)-1H-pyrrol-2-yl)propanoic acid]",IC50,< 1 µM
"Cc1nccn1-c1csc(-c2ccc(CCC(=O)O)n2-c2ccc(NS(C)(=O)=O)cc2)c1 [Compound 267, 3-(5-(4-(2-methyl-1H-imidazol-1-yl)thiophen-2-yl)-1-(4-(methylsulfonamido)-phenyl)-1H-pyrrol-2-yl)propanoic acid]",IC50,< 1 µM
"Cc1nccn1-c1ccc(-c2ccc(CCC(=O)O)n2-c2ccc(O)cc2)s1 [Compound 273, 3-(1-(4-hydroxyphenyl)-5-(5-(2-methyl-1H-imidazol-1-yl)thiophen-2-yl)-1H-pyrrol-2-yl)propanoic acid]",IC50,< 1 µM
